Assay results from patent US7575910B2, “Method for producing L-fuculose and method for producing L-fucose” (priority 2004, dated 2009).
Like-named read-outs stand apart in the source and are kept apart here.

Assays:
FcDH = FcDH (Gluconobacter thailandicus, UniProt A0ABQ0IZX0); assay: Bivalent metal ion specificity of FcDH; assay type: biochemical, Gluconobacter oxydans IFO 3255
NOX (NADH oxidase) = NOX (NADH oxidase) (Gluconobacter thailandicus, UniProt A0ABQ0IUG6); assay: NOX activity: NADH/NADPH and flavin coenzyme specificity; assay type: biochemical, Gluconobacter oxydans IFO 3255; details: for NOX activation effect of flavin coenzyme: flavin 0 to 300 μM, FIG. 19
Description: (§1) The change in absorbance in the first minute was taken as an initial rate, and the activity was calculated therefrom. The experimental group without the enzyme source was used as a blank. […] The measurement was taken three consecutive times. Their mean value was taken and is shown in the figure with the standard deviation.
The concentration of flavin in the reaction solution was 0 to 300 μM, and the others were adjusted to standard conditions.
The Km value for the substrate was calculated by measuring the activity with a variety of substrate concentrations and drawing a Lineweaver-Burk plot of the results.

[1] = target: T1, FcDH (L-fuculose-producing L-fucitol dehydrogenase) (Gluconobacter thailandicus, UniProt A0ABQ0IZX0); assay: Substrate specificity of purified FcDH (kcat, Km by Lineweaver-Burk plot); assay type: biochemical, Gluconobacter oxydans IFO 3255
T1 sequence (A0ABQ0IZX0 1-257): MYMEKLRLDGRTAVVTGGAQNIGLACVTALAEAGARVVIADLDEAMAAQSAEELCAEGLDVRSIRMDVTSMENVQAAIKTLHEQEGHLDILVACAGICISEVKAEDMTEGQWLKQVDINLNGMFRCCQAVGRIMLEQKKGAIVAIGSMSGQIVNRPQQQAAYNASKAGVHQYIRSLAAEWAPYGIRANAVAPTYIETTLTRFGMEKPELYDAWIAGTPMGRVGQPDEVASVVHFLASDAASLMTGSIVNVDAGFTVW
Description: The measurement was started when NAD was added. […] The measurement was performed consecutively three times.
Values of kcat and Km for each substrate were obtained by measuring the initial rate of the reaction with various substrate concentrations and drawing a Lineweaver-Burk plot of the results.
Lineweaver-Burk plots of the results in (A) and (B) are shown in FIG. 12 (C) and (D), respectively. The Km and kcat values were calculated from the range in which substrate inhibition was not observed, i.e., from a straight line represented by a broken line in FIG. 12 (C) and (D).

[2] = test system: L-fucitol dehydrogenase in cell free extract of G. oxydans IFO 3255 sldA:Kmr mutant strain; assay: NAD(P)-dependent L-fucitol oxidation activity in cell free extract; assay type: biochemical, Gluconobacter oxydans IFO 3255 sldA:Kmr
Description: Subsequently, 1 ml of the medium was added to 50 ml of the same liquid medium, and cultured at 30° C. for 18 hours using a 500 ml Sakaguchi flask. The microbial cells were collected by centrifuging this medium, washed with 9 g/l of NaCl, and sonicated with 200 W for 10 minutes to yield the disrupted microbial cells. These cells were further centrifuged at 15,000 g for 15 minutes to yield the supernatant, which was then used as a cell-free extract. […] The experiment was also performed without L-fucitol as the control.

[3] = Description: The measurement was started when NAD was added. The change in absorbance in the first minute was taken as the initial rate, and the activity was calculated therefrom. […] The measurement was performed consecutively three times. Their mean value was taken and is shown in the figure with the standard deviation.
As pH buffers, sodium acetate buffer (pH 4.8, 5.7), potassium phosphate buffer (pH 6.4, 7.2), Tris-HCl buffer (pH 6.7, 7.6, 8.5), CAPS-NaOH buffer (Sodium cyclohexylaminopropanesulfonate) (pH 8.3, 9.5) and sodium carbonate buffer (pH 10.1, 10.7, 11.2) were used.
A solution containing 0.1M pH buffer and 80 μg/ml purified FcDH was left to stand on ice for 30 minutes, and subsequently the solution was diluted to a final FcDH concentration of 1.6 μg/ml. The reaction was performed under standard conditions, and the remaining FcDH activity was measured.
A solution containing Gly-NaOH (pH 9.5), MgCl2, fucitol, and purified FcDH was preincubated at each temperature (25, 30, 37, 45, 55, or 65° C.) for 3 minutes, and then NAD that had been separately preincubated at each temperature was added thereto to start the reaction. The final concentrations in the reaction solution were adjusted to the standard conditions for activity measurement, and the final concentration of FcDH was 1.6 μg/ml.
A solution containing Gly-NaOH (pH 9.5) and 80 μg/ml purified FcDH was left to stand at 0, 25, 30, 37, 50 or 60° C. for 30 minutes. The solution was then diluted so that the final concentration of FcDH was 1.6 μg/ml. The reaction was performed under standard conditions, and the remaining FcDH activity was measured. The remaining activity of FcDH measured at each temperature is reported (FIG. 11) as the relative percentage as compared to the remaining activity when left to stand at 0° C.
(§2) The activity of the purified preparations of rFcDH and rNOX that had been purified as described above was also measured.

[4] = remark: listed apart in the source
Description: as §1
As pH buffers, sodium citrate buffer (pH 3.6, 4.7, 5.7), sodium acetate buffer (pH 4.8, 5.7), potassium phosphate buffer (pH 6.4, 7.2), Tris-HCl buffer (pH 6.7, 7.6, 8.5), and CAPS-NaOH buffer (pH 8.3, 9.5) were used.
as §2

[5] = 5 mM bivalent metal ion or EDTA
[6] = 5 mM bivalent metal ion or EDTA, relative to specific activity with MnCl2
[7] = substrate, Lineweaver-Burk plot

Molecule: [Ca+2].[Cl-].[Cl-] [CaCl2]
- effect on FcDH activity (FcDH; [5]): activation effect
- RELATIVE ACTIVITY (%) (FcDH; [6]): 89.9 ± 3.4%

Molecule: [Cl-].[Cl-].[Co+2] [CoCl2]
- RELATIVE ACTIVITY (%) (FcDH): 34.8 ± 1.1%
- effect on FcDH activity (FcDH): no effect

Molecule: [Cl][Cu][Cl] [CuCl2]
- effect on FcDH activity (FcDH; [5]): inhibitory effect
- RELATIVE ACTIVITY (%) (FcDH; [6]): 5.0 ± 0.5%

Molecule: Cc1cc2nc3c(=O)[nH]c(=O)nc-3n(C[C@H](O)[C@H](O)[C@H](O)COP(=O)(O)O)c2cc1C [FMN]
- NOX activation effect of flavin coenzyme (NOX (NADH oxidase)): relatively weaker

Molecule: OCC(O)CO [GLYCEROL, glycerol]
- Kcat [1, 7]: 0.9 U · mg−1
- Km [1, 7]: 10.1 mM

Molecule: C[C@H](O)[C@@H](O)[C@@H](O)[C@H](O)CO [L-FUCITOL, L-fucitol]
- substrate concentration at which a reduction of the specific activity (inhibition by the substrate) was observed ([1]; FIG. 12): ≥ 100 mM
- Dehydrogenase activity ([2]; coenzyme NAD, pH 6.0): 3.1 ×10^−3 U/mg
- Dehydrogenase activity ([2]; coenzyme NAD, pH 8.8): 18.4 ×10^−3 U/mg
- Dehydrogenase activity ([2]; coenzyme NADP, pH 6.0): 0.0 ×10^−3 U/mg
- Dehydrogenase activity ([2]; coenzyme NADP, pH 8.8): 1.9 ×10^−3 U/mg

Molecule: [Cl-].[Cl-].[Mg+2] [MgCl2]
- effect on FcDH activity (FcDH; [5]): activation effect
- RELATIVE ACTIVITY (%) (FcDH; [6]): 93.7 ± 2.9%

Molecule: [Cl][Mn][Cl] [MnCl2]
- effect on FcDH activity (FcDH; [5]): activation effect
- RELATIVE ACTIVITY (%) (FcDH; [6]): 100.0 ± 6.9%

Molecule: NC(=O)C1=CN([C@@H]2O[C@H](COP(=O)(O)OP(=O)(O)OC[C@H]3O[C@@H](n4cnc5c(N)ncnc54)[C@H](OP(=O)(O)O)[C@@H]3O)[C@@H](O)[C@H]2O)C=CC1 [NADPH]
- NOX activity with NADPH as the substrate (NOX (NADH oxidase); data not shown): no significant activity

Molecule: [Cl][Ni][Cl] [NiCl2]
- effect on FcDH activity (FcDH; [5]): no effect
- RELATIVE ACTIVITY (%) (FcDH; [6]): 42.4 ± 0.7%

Molecule: O=S(=O)([O-])[O-].[Zn+2] [ZnSO4]
- effect on FcDH activity (FcDH; [5]): inhibitory effect
- RELATIVE ACTIVITY (%) (FcDH; [6]): 11.7 ± 0.5%

Molecule: Cc1cc2nc3c(=O)[nH]c(=O)nc-3n(C[C@H](O)[C@H](O)[C@H](O)CO)c2cc1C [riboflavin]
- NOX activation effect of flavin coenzyme (NOX (NADH oxidase)): NOX activation effect was observed

B1: FcDH: L-fuculose-producing L-fucitol dehydrogenase purified from G. oxydans IFO 3255, SEQ ID NO:16 (protein)
chain: T1 sequence (A0ABQ0IZX0 1-257)
modifications: Gluconobacter oxydans
- remaining activity (temperature stability) ([3]; 0.5 h): ≥ 80%
- pH of maximum specific activity ([3]; FIG. 8, 30° C.): 9.5
- temperature of maximum specific activity ([3]; FIG. 10, pH 9.5): 37 °C
- remaining activity (pH stability) ([3]; buffer, 0.5 h, pH 7.2): ≥ 80%
- specific activity of FcDH ([3]; purified preparation, 10 mM L-fucitol, 1 mM NAD, pH 9.5, 30° C.): 7.8 U/mg

B2: NOX: NADH oxidase purified from G. oxydans IFO 3255, SEQ ID NO:18 (protein)
chain: MTILNEQDFRRAMSHFATGVAVVTAKGSEGEQGATISALTSVSLDPLLLLICLHRGSSTYKAIAEAGRFGLSILNNSHKDVAMLFASRTADKFGSDVVVRAEDGTAFIDGALVQMHCELVETFQGGTHALFMARPTSITVRDEAPLLYFQGQLGVEA
modifications: Gluconobacter oxydans
- remaining activity (temperature stability) ([4]; 0.5 h): ≥ 80%
- pH of maximum specific activity ([4]; FIG. 15, 30° C.): 5.7
- temperature of maximum specific activity ([4]; FIG. 17, pH 8.0): 37 °C
- remaining activity (pH stability) ([4]; buffer, 0.5 h, pH 8.8): ≥ 80%
- specific activity of NOX ([4]; purified preparation, 0.2 mM NADH, 30 μM FAD, pH 8.0, 30° C.): 196 U/mg
